Results reported in patent publication US20110318273A1, “FLUORESCENT CONTRAST AGENTS” (GE HEALTHCARE AS, priority 2004, published 2011).

Experiments:
[1] = Absorption spectrum of the reduced fluorochrome in phosphate-buffered saline (diode array spectrophotometer); format: physicochemical; settings: for absorption in the visible region: reduced with sodium borohydride, diluted in phosphate-buffered saline, pH 7.4
Procedure: (§1) To 2 ml of a 1 mM solution of rhodamine 800 (Fluke, prod. No. 83701) in 0.1 M borate buffer, pH 8.5 was added approximately 5 mg of sodium borohydride. The mixture was shaken and left at room temperature for two hours. 40 microliters of the reduced solution was added to 960 μl of phosphate-buffered saline, pH 7.4. […] The spectrum of untreated rhodamine 800 (solid line) was recorded by exactly the same procedure. The sample of diluted, reduced fluorochrome was gently oxidized in air and its spectrum recorded (dashed line).
as §1, with “110 (Fluka,” for “800 (Fluke,”, “83695)” for “83701)”, “110” for “800”
as §1, with “fluorescein (Sigma,” for “rhodamine 800 (Fluke,”, “F-6377)” for “83701)”, “fluorescein” for “rhodamine 800”

[2] = Re-oxidation of the diluted, reduced fluorochrome in air, spectrum recorded; format: physicochemical; settings: gently oxidized in air
Procedure: as §1
as §1, with “110 (Fluka,” for “800 (Fluke,”, “83695)” for “83701)”, “110” for “800”
as §1, with “fluorescein (Sigma,” for “rhodamine 800 (Fluke,”, “F-6377)” for “83701)”, “fluorescein” for “rhodamine 800”

[3] = Oxidation of reduced rhodamine 110 by hydrogen peroxide, increase in fluorescence; settings: hydrogen peroxide 10 μM final; emission 538 nm, excitation 485 nm
Procedure: Rhodamine 110 was reduced as in Example 2. Hydrogen peroxide to a final concentration of 10 μM was added to a portion of the solution of reduced rhodamin 110, i.e. to dihydrorhodamin 110, and the increase in fluorescence was recorded at 538 nm (excitation at 485 nm) on a Thermo Fluoroscan Ascent FL fluorimeter.

| fluorescence following exposure to visible light [1] | optical properties after oxidation of the reduced fluorochrome [2] | Structure (SMILES) | absorption in the visible region [1] | oxidation by hydrogen peroxide (increase in fluorescence) [3] |
| --- | --- | --- | --- | --- |
| very little fluorescence | regaining its optical properties | Nc1ccc2c(c1)Oc1cc(N)ccc1C2c1ccccc1C(=O)O [dihydro-rhodamine 110] | virtually no absorption in the visible region | rapidly oxidised |
| no fluorescence | regaining its optical properties | O=C(O)c1ccccc1C1c2ccc(O)cc2Oc2cc(O)ccc21 [dihydrofluorescein] | losing nearly all absorption in the visible region |  |
| no fluorescence | regaining its optical properties | N#CC1c2cc3c4c(c2Oc2c1cc1c5c2CCCN5CCC1)CCCN4CCC3 [dihydro-rhodamine 800] | losing nearly all absorption in the visible region |  |
